Measurements reported in patent publication EP0399814A2, “Phenol derivatives for promoting human nerve growth factor” (Sankyo Company Limited, priority 1989, dated 1990).

test system: L-M cells; assay: NGF production and secretion by L-M cells (Furukawa method), NGF level in medium determined by enzyme immunoassay; format: cell-based, mouse; settings: Mus musculus; compounds of the invention at 10 γ/ml; L-M cells cultured 24 hours; NGF amount relative to cells not treated with test compound; read-out: % Control
From the text: Furukawa et al. reported that L-M cells of a fibroblast cell line from mouse connective tissue can produce and secrete a relatively large amount of NGF, and that catecholamines accelerate such production and secretion of NGF (J. Biol. Chem., 261, 6039-6047, 1986). Following the test method described in this Furukawa paper, but using the compounds of the invention and recognized NGF promoters epinephrine, isoproterenol, L-DOPA, and caffeic acid, NGF production and secretion activities were examined. The test compounds of this invention were employed at 10 γ/ml, and the known compounds were employed at 20 γ/ml.
Culture medium 199 containing 0.5% peptone was used for culturing L-M cells (for the culture medium 199, see, for instance, Morgan et al., Proc. Soc. Exp. Biol. Med., 73, 1 (1950) or Morgan et al. J. Natl. Cancer Inst., 16, 557 (1955). About 5 x 10⁴ of L-M cells were placed in each well of a culture plate with 24 wells, and cultured using a CO₂ incubator (37°C, 5% CO₂) until confluence. After removing the culture medium, the cultured cells were washed once with 199 culture medium containing 0.5% bovine serum albumin (Fraction V, Sigma). The test compounds were added to a specified concentration to a 199 culture medium containing 0.5% bovine serum albumin, and treated with 0.5 ml of L-M cells. After culturing the L-M cells in a CO₂ incubator for 24 hours, the medium was recovered and the NGF level was determined.
NGF was determined using an enzyme immunoassay (Korshing and Thoenen, Proc. Natl. Acad. Sci. USA, 80, 3513-3516, 1983). A solution (each 75 µl) of anti-mouse β-NGF antibody (0.3 µg/ml, pH 9.6; Boehringer Mannheim) was pipetted into each well of a polystyrene plate with 96 wells. After allowing the plate to stand at room temperature for an hour, the antibody was removed by washing three times with detergent solution. A solution (50 µl) of standard β-NGF (Wako Pure Chemical Industries Ltd.) or the recovered medium (50 µl) for each of the test compounds was pipetted into each well. After allowing the plate to stand at room temperature for 6 - 8 hours, the standard β-NGF or test solution was removed and each well was washed three times. A solution (50 µl) of β-NGF monoclonal antibody (100 mU/ml, pH 7.0; Boehringer Mannheim) labelled with β-galactosidase was pipetted into each well. After allowing the plate to stand at 4°C for 15 - 18 hours, enzyme labelled antibody was removed and the wells washed three times followed by pipetting a solution (100 µl) of chlorophenol red-β-D-galactopyranoside (1 mg/ml, pH 7.3; Boehringer Mannheim) into each well. Colour was allowed to develop (2 - 3 hours at room temperature), and the absorbance was determined at 570 nm. The amount of NGF was calculated from a standard curve. The results are expressed as a relative value (%) which is relative to the amount of NGF produced and secreted by cells treated not with the test compounds. The numerical values (% control) are expressed by the mean value in the 3 wells of the control (without addition of the test compounds).

Structure (SMILES)	activity at 10 µg/mL
CC(=O)Oc1cc2c(cc1OC(C)=O)CC(C(=O)Nc1ccc(Cl)cc1Cl)CC2 (centres unmarked) [Example 91, N-(2,4-dichlorophenyl)-6,7-diacetoxy-1,2,3,4-tetrahydro-2-naphthamide]	575%
CC(=O)Oc1cc2c(cc1OC(C)=O)CC(C(=O)NC13CC4CC(CC(C4)C1)C3)CC2 (centres unmarked) [Example 93, N-(1-adamantyl)-6,7-diacetoxy-1,2,3,4-tetrahydro-2-naphthamide]	941%
CC(=O)Oc1cc2c(cc1OC(C)=O)CCC(C(=O)Nc1ccc(Cl)cc1Cl)=C2 [Example 94, N-(2,4-dichlorophenyl)-6,7-diacetoxy-3,4-dihydro-2-naphthamide]	459%
CC(=O)Oc1cc2c(cc1OC(C)=O)CCC(C(=O)Nc1cnc3ccccc3c1)=C2 [Example 95, N-(3-quinolyl)-6,7-diacetoxy-3,4-dihydro-2-naphthamide]	341%
CC(=O)Oc1cc2c(cc1OC(C)=O)CCC(C(=O)NC13CC4CC(CC(C4)C1)C3)=C2 [Example 96, N-(1-adamantyl)-6,7-diacetoxy-3,4-dihydro-2-naphthamide]	558%

same assay, conditions: Mus musculus; known compounds at 20 γ/ml; L-M cells cultured 24 hours; NGF amount relative to cells not treated with test compound; read-out: % Control

Structure (SMILES)	activity at 20 µg/mL
N[C@@H](Cc1ccc(O)c(O)c1)C(=O)O [L-DOPA, reference compound]	117 ± 7%
O=C(O)/C=C/c1ccc(O)c(O)c1 [caffeic Acid, caffeic acid, reference compound]	123 ± 14%
CNC[C@H](O)c1ccc(O)c(O)c1 [epinephrine, reference compound]	140 ± 24%
CC(C)NCC(O)c1ccc(O)c(O)c1 (centres unmarked) [isoproterenol, reference compound]	168 ± 22%

same assay, conditions: compounds of the invention at 10 γ/ml; L-M cells cultured 24 hours; NGF amount relative to cells not treated with test compound

Structure (SMILES)	% Control
CC(=O)Oc1ccc(CCC(=O)Nc2cc(Cl)ccc2Cl)cc1OC(C)=O [Example 1, N-(2,5-dichlorophenyl)-3,4-diacetoxyphenylpropionamide]	201%
CC(=O)Oc1ccc(CCCC(=O)NC23CC4CC(CC(C4)C2)C3)cc1OC(C)=O [Example 46, N-(1-adamantyl)-3,4-diacetoxyphenylbutyrylamide]	939%
